In PubChem BioAssay AID2060912 (Molecular Pharmacology Branch, DTP, NCI, 2025):

Test system: HUVEC/MSC spheroids viability
Assay: Human HUVEC/MSC cell line growth inhibition [KRAS2];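 for viability, T/C: percent of DMSO vehicle control luminescence so 100% = untreated viability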
Settings: for IC50: curve of first compound; for viability, T/C: stronger effect = lower value
In short: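 Concentration ranges start near each agent's clinical Cmax, or at 10 microM if none is established, and fall by half-log increments. These ranges are tested as single agents and combinations on endothelial/mesenchymal stem cell spheroids lacking tumour cells.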

[1] = second compound 0.0316 µM, first compound 0.0316 µM
[2] = second compound 0.0316 µM, first compound 0.1 µM
[3] = second compound 0.0316 µM, first compound 0.316 µM
[4] = second compound 0.0316 µM, first compound 1 µM
[5] = second compound 0.1 µM, first compound 0.0316 µM
[6] = second compound 0.1 µM, first compound 0.1 µM
[7] = second compound 0.1 µM, first compound 0.316 µM
[8] = second compound 0.1 µM, first compound 1 µM
[9] = second compound 0.316 µM, first compound 0.0316 µM
[10] = second compound 0.316 µM, first compound 0.1 µM
[11] = second compound 0.316 µM, first compound 0.316 µM
[12] = second compound 0.316 µM, first compound 1 µM
[13] = second compound 1 µM, first compound 0.0316 µM
[14] = second compound 1 µM, first compound 0.1 µM
[15] = second compound 1 µM, first compound 0.316 µM
[16] = second compound 1 µM, first compound 1 µM
[17] = second compound 3.16 µM, first compound 0.0316 µM
[18] = second compound 3.16 µM, first compound 0.1 µM
[19] = second compound 3.16 µM, first compound 0.316 µM
[20] = second compound 3.16 µM, first compound 1 µM
[21] = second compound 10 µM, first compound 0.0316 µM
[22] = second compound 10 µM, first compound 0.1 µM
[23] = second compound 10 µM, first compound 0.316 µM
[24] = second compound 10 µM, first compound 1 µM

CCN1CCN(Cc2ccc(Nc3ncc(F)c(-c4cc(F)c5nc(C)n(C(C)C)c5c4)n3)nc2)CC1 + COc1cc2nc(C)nc(NC(C)c3cc(N)cc(C(F)(F)F)c3)c2cc1OC1CCOC1
IC50 (second compound 0.0316 µM): > 1 µM | IC50 (second compound 0.1 µM): > 1 µM | IC50 (second compound 0.316 µM): > 1 µM | IC50 (second compound 1 µM): > 1 µM | IC50 (second compound 3.16 µM): > 1 µM | IC50 (second compound 10 µM): > 1 µM | viability, T/C (second compound 0.0316 µM, first compound 0.00316 µM): 93.3% | viability, T/C (second compound 0.0316 µM, first compound 0.01 µM): 77% | viability, T/C [1]: 87.6% | viability, T/C [2]: 80.3% | viability, T/C [3]: 93.4% | viability, T/C [4]: 122% | viability, T/C (second compound 0.1 µM, first compound 0.00316 µM): 77.7% | viability, T/C (second compound 0.1 µM, first compound 0.01 µM): 90.9% | viability, T/C [5]: 83.1% | viability, T/C [6]: 73.7% | viability, T/C [7]: 105% | viability, T/C [8]: 106% | viability, T/C (second compound 0.316 µM, first compound 0.00316 µM): 72.5% | viability, T/C (second compound 0.316 µM, first compound 0.01 µM): 92.5% | viability, T/C [9]: 79.4% | viability, T/C [10]: 79% | viability, T/C [11]: 96.1% | viability, T/C [12]: 121% | viability, T/C (second compound 1 µM, first compound 0.00316 µM): 76.1% | viability, T/C (second compound 1 µM, first compound 0.01 µM): 68.8% | viability, T/C [13]: 71.2% | viability, T/C [14]: 77.2% | viability, T/C [15]: 95.7% | viability, T/C [16]: 117% | viability, T/C (second compound 3.16 µM, first compound 0.00316 µM): 65.8% | viability, T/C (second compound 3.16 µM, first compound 0.01 µM): 74.4% | viability, T/C [17]: 65.4% | viability, T/C [18]: 69.9% | viability, T/C [19]: 77% | viability, T/C [20]: 103% | viability, T/C (second compound 10 µM, first compound 0.00316 µM): 63.7% | viability, T/C (second compound 10 µM, first compound 0.01 µM): 76.7% | viability, T/C [21]: 65.7% | viability, T/C [22]: 56.4% | viability, T/C [23]: 66.5% | viability, T/C [24]: 75%

CCNC(=O)CC1N=C(c2ccc(Cl)cc2)c2cc(OC)ccc2-n2c(C)nnc21 (centres undefined) + COc1cc2nc(C)nc(NC(C)c3cc(N)cc(C(F)(F)F)c3)c2cc1OC1CCOC1
IC50 (second compound 0.0316 µM): > 10 µM | IC50 (second compound 0.1 µM): > 10 µM | IC50 (second compound 0.316 µM): > 10 µM | IC50 (second compound 1 µM): > 10 µM | IC50 (second compound 3.16 µM): > 10 µM | IC50 (second compound 10 µM): > 10 µM | viability, T/C [1]: 89.6% | viability, T/C [2]: 94% | viability, T/C [3]: 94.3% | viability, T/C [4]: 113% | viability, T/C (second compound 0.0316 µM, first compound 3.16 µM): 114% | viability, T/C (second compound 0.0316 µM, first compound 10 µM): 120% | viability, T/C [5]: 78.7% | viability, T/C [6]: 86.2% | viability, T/C [7]: 89.3% | viability, T/C [8]: 85.6% | viability, T/C (second compound 0.1 µM, first compound 3.16 µM): 124% | viability, T/C (second compound 0.1 µM, first compound 10 µM): 84.3% | viability, T/C [9]: 86.4% | viability, T/C [10]: 90.2% | viability, T/C [11]: 105% | viability, T/C [12]: 99.6% | viability, T/C (second compound 0.316 µM, first compound 3.16 µM): 89.5% | viability, T/C (second compound 0.316 µM, first compound 10 µM): 88.5% | viability, T/C [13]: 89.8% | viability, T/C [14]: 79.9% | viability, T/C [15]: 73% | viability, T/C [16]: 105% | viability, T/C (second compound 1 µM, first compound 3.16 µM): 100% | viability, T/C (second compound 1 µM, first compound 10 µM): 90% | viability, T/C [17]: 73.5% | viability, T/C [18]: 81.1% | viability, T/C [19]: 75.9% | viability, T/C [20]: 82.3% | viability, T/C (second compound 3.16 µM, first compound 3.16 µM): 84.6% | viability, T/C (second compound 3.16 µM, first compound 10 µM): 109% | viability, T/C [21]: 60.6% | viability, T/C [22]: 55.9% | viability, T/C [23]: 69.5% | viability, T/C [24]: 70% | viability, T/C (second compound 10 µM, first compound 3.16 µM): 82.1% | viability, T/C (second compound 10 µM, first compound 10 µM): 74.8%
